Measured values: ChEMBL document CHEMBL1201862, “PubChem BioAssay data set” (2004)
Blank lines part the entries; values can stand above or below the molecule they belong to. Active and inactive are the calls of the source.

How the values were obtained:
[1] = target: Protein kinase C theta type (Homo sapiens, UniProt Q04759); test: Navigating the Kinome. Panel member name: PRKCQ; type: functional
[2] = target: Dual specificity mitogen-activated protein kinase kinase 1 (Homo sapiens, UniProt Q02750); test: Navigating the Kinome. Panel member name: MAP2K1; type: functional
Dual specificity mitogen-activated protein kinase kinase 1, sequence (Q02750 whole entry): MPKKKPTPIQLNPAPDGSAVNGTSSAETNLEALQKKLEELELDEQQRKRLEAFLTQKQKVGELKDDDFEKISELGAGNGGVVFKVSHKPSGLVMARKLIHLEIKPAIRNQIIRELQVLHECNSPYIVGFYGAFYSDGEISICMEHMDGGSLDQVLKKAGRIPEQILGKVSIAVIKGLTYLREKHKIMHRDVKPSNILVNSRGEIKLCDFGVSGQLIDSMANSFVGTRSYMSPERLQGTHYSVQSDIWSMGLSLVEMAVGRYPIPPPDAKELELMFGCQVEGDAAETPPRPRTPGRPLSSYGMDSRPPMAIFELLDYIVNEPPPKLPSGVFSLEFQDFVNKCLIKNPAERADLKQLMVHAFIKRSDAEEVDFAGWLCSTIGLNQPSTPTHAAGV

Aurora kinase A = Aurora kinase A (Homo sapiens, UniProt O14965); type: functional;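 also: value from the Navigating the Kinome kinase panel profiling, panel entry STK6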
[3] = target: Vascular endothelial growth factor receptor 2 (Homo sapiens, UniProt P35968); type: functional
Vascular endothelial growth factor receptor 2, sequence (P35968 whole entry): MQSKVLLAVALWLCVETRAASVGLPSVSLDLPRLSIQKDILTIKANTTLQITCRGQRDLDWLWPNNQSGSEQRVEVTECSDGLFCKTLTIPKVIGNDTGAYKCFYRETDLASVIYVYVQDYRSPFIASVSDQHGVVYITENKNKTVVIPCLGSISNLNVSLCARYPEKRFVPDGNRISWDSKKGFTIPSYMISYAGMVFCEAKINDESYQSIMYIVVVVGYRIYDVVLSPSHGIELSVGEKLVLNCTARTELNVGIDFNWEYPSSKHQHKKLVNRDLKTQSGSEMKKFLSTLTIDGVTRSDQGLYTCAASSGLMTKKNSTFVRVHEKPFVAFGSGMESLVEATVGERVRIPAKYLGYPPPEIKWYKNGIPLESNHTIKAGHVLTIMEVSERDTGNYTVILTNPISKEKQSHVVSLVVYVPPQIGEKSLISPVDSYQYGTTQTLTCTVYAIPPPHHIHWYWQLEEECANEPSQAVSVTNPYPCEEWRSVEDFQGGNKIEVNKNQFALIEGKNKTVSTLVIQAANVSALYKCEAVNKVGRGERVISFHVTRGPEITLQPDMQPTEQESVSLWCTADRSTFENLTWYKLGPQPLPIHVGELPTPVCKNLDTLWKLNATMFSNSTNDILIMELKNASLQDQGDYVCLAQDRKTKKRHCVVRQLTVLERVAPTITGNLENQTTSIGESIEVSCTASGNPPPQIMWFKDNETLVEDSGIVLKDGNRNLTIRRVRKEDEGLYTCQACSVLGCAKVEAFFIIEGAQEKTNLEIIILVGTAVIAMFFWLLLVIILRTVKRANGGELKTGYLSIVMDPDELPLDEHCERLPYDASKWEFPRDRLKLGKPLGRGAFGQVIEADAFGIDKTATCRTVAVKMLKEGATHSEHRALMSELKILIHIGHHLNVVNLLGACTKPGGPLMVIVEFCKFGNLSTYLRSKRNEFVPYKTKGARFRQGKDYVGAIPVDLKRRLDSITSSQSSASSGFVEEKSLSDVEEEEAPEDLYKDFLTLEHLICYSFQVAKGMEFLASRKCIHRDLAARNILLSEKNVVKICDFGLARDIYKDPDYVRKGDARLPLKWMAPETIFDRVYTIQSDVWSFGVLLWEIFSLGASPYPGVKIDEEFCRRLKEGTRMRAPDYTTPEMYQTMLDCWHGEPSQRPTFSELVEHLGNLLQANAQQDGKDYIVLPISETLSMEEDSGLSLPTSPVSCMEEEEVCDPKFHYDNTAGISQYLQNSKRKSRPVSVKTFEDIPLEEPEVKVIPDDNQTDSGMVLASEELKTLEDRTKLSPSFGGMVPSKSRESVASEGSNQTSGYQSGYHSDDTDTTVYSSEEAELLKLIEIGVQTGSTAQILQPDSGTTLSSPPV

[4] = target: Dual specificity tyrosine-phosphorylation-regulated kinase 1B (Homo sapiens, UniProt Q9Y463); test: Navigating the Kinome. Panel member name: DYRK1B; type: functional
Dual specificity tyrosine-phosphorylation-regulated kinase 1B, sequence (Q9Y463 whole entry): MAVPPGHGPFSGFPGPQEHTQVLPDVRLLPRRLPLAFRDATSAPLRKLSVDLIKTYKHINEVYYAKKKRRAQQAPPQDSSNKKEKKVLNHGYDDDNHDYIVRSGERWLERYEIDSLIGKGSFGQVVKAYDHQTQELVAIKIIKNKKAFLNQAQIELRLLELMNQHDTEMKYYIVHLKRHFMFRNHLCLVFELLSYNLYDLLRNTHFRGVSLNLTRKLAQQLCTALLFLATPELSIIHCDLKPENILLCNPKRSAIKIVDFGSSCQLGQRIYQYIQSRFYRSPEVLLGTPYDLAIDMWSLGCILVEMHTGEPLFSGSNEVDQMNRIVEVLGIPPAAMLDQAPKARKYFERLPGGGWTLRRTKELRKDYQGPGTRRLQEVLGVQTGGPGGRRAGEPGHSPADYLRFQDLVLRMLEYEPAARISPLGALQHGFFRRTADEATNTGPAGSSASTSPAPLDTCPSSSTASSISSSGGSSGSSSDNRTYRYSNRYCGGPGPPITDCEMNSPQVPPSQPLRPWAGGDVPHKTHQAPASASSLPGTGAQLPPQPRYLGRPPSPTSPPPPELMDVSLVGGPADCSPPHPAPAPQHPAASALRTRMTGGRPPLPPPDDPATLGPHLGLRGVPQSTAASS

[5] = target: Cyclin-dependent kinase 19 (Homo sapiens, UniProt Q9BWU1); test: Navigating the Kinome. Panel member name: CDC2L6; type: functional
Cyclin-dependent kinase 19, sequence (Q9BWU1 whole entry): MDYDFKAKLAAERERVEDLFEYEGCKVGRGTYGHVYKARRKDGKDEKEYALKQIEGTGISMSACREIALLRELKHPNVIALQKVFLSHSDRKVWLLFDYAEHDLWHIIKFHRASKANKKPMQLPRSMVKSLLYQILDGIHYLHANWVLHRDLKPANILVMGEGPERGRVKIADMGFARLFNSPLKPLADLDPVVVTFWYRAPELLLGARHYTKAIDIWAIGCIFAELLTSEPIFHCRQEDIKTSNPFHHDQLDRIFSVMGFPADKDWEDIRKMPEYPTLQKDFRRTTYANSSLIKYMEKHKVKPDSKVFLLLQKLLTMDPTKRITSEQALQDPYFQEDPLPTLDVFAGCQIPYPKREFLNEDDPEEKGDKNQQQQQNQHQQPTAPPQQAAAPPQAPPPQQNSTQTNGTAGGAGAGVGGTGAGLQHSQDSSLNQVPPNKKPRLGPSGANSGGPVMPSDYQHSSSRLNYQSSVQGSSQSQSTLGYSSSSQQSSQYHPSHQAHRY

[6] = target: Cyclin-dependent kinase 9 (Homo sapiens, UniProt P50750); type: functional;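 also: value from the CDK9 entry of a kinome-spanning kinase panel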
[7] = target: cAMP-dependent protein kinase catalytic subunit alpha (Homo sapiens, UniProt P17612); type: functional
[8] = target: Dual specificity protein kinase CLK4 (Homo sapiens, UniProt Q9HAZ1); type: functional
Dual specificity protein kinase CLK4, sequence (Q9HAZ1 whole entry): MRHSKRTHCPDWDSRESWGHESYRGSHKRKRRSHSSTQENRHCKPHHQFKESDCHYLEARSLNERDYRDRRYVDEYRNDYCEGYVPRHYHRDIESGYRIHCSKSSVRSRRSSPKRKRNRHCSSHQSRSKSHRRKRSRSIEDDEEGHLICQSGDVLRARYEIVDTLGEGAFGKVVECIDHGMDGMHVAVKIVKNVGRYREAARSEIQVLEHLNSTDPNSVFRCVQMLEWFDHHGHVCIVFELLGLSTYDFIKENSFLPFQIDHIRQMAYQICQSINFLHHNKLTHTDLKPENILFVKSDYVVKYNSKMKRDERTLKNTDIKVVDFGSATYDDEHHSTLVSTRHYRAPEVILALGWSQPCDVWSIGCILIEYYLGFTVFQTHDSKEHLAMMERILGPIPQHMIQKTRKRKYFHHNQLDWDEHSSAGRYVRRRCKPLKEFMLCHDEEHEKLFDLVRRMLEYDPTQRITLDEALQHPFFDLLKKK

[9] = target: Macrophage colony-stimulating factor 1 receptor (Homo sapiens, UniProt P07333); type: functional;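 also: value comes from the Navigating the Kinome screening panel, CSF1R member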
Macrophage colony-stimulating factor 1 receptor, sequence (P07333 whole entry): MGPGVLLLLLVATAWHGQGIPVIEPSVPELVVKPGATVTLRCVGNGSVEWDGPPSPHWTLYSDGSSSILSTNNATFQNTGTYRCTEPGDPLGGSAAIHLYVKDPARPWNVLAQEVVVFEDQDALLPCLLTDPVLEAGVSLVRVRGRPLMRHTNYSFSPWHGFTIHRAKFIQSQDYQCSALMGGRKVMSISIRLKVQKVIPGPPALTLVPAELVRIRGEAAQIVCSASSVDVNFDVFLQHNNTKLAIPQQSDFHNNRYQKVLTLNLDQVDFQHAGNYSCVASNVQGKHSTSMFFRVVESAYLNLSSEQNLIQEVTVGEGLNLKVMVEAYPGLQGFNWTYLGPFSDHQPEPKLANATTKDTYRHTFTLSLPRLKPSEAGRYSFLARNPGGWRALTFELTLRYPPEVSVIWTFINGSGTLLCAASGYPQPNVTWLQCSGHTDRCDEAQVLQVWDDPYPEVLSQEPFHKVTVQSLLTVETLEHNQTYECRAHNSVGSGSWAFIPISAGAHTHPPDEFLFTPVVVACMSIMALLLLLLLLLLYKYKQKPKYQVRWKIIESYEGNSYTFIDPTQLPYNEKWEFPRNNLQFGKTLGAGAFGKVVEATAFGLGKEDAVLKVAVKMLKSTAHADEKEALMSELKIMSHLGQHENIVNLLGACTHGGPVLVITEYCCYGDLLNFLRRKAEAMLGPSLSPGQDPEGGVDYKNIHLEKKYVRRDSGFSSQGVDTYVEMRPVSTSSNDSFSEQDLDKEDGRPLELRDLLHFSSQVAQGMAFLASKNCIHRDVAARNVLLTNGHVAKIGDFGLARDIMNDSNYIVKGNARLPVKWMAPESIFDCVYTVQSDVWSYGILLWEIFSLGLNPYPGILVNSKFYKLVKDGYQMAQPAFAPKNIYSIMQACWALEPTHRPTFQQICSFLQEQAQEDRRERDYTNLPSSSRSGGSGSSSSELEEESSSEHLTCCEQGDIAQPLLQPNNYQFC

[10] = target: Dual specificity tyrosine-phosphorylation-regulated kinase 1A (Homo sapiens, UniProt Q13627); type: functional;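 also: measured against DYRK1A as one member of a broad kinome profiling panel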
Candida albicans [11] = test: growth inhibition of azole-resistant C. albicans, dose response, CaCi-8 strain, Alamar Blue, dry powder, set 3 (AID 488905); type: functional, organism-based
Candida albicans [12] = test: reversal of fluconazole resistance in C. albicans, dose response, CaCi-2 strain, Alamar Blue, dry powder, set 3 (AID 488907); type: functional, organism-based
[13] = target: Mitogen-activated protein kinase 8 (Homo sapiens, UniProt P45983); type: functional;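 also: value comes from one member of a kinome-wide kinase profiling panel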
Mitogen-activated protein kinase 8, sequence (P45983 whole entry): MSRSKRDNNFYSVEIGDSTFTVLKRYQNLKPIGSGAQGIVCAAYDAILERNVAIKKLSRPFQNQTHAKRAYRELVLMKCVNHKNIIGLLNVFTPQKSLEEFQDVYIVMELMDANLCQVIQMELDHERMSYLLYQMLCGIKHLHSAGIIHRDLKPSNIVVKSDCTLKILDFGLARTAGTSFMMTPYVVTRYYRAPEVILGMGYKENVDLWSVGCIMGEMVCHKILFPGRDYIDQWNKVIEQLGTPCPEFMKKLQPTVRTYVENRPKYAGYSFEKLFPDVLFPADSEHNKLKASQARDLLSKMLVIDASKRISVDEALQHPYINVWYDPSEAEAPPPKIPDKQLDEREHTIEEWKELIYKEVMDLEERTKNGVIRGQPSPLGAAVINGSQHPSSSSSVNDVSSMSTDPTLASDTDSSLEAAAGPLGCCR

[14] = target: Cyclin-dependent kinase 5 (Homo sapiens, UniProt Q00535); type: functional;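 also: CDK5 measured as one member of a kinase profiling panel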
Cyclin-dependent kinase 5, sequence (Q00535 whole entry): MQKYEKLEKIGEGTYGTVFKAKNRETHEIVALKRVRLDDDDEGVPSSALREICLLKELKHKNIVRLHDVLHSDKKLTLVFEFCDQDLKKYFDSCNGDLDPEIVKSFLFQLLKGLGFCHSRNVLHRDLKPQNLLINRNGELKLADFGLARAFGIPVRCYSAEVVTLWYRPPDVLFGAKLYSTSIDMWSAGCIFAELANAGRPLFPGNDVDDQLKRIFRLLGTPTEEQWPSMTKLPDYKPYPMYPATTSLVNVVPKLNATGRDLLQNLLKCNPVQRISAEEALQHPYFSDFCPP

[15] = target: Platelet-derived growth factor receptor alpha (Homo sapiens, UniProt P16234); test: Navigating the Kinome. Panel member name: PDGFRA; type: functional
Caspase-3 = target: T1, Caspase-3 (Homo sapiens, UniProt P42574); test: caspase-3 inhibitors as off-family protease, SAR follow-up, selectivity assay for SENP protease inhibitor project, biochemical, luminescence, set 2 (AID 588599); type: functional
T1 sequence (P42574 whole entry): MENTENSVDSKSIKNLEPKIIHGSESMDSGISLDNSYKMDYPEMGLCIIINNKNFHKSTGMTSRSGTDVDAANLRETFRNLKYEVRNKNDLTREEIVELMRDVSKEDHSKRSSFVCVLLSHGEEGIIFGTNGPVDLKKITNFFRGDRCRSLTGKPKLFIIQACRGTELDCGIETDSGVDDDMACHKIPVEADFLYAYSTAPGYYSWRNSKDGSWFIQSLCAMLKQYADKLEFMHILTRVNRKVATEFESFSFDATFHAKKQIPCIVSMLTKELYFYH

[16] = target: T2, Sentrin-specific protease 8 (Homo sapiens, UniProt Q96LD8); test: SENP8 protease inhibitors, SAR follow-up, biochemical, luminescence, set 2 (AID 588601); type: functional
T2 sequence (Q96LD8 whole entry): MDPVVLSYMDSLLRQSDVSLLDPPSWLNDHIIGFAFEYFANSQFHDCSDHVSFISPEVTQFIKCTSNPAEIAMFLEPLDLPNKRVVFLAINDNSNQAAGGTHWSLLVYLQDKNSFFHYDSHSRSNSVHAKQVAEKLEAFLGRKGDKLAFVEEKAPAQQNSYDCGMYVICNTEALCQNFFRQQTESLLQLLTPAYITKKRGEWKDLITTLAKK

[17] = target: T3, Sentrin-specific protease 7 (Homo sapiens, UniProt Q9BQF6); test: SENP7 protease inhibitors, SAR follow-up, biochemical, luminescence, set 2 (AID 588600); type: functional
T3 sequence (Q9BQF6 whole entry): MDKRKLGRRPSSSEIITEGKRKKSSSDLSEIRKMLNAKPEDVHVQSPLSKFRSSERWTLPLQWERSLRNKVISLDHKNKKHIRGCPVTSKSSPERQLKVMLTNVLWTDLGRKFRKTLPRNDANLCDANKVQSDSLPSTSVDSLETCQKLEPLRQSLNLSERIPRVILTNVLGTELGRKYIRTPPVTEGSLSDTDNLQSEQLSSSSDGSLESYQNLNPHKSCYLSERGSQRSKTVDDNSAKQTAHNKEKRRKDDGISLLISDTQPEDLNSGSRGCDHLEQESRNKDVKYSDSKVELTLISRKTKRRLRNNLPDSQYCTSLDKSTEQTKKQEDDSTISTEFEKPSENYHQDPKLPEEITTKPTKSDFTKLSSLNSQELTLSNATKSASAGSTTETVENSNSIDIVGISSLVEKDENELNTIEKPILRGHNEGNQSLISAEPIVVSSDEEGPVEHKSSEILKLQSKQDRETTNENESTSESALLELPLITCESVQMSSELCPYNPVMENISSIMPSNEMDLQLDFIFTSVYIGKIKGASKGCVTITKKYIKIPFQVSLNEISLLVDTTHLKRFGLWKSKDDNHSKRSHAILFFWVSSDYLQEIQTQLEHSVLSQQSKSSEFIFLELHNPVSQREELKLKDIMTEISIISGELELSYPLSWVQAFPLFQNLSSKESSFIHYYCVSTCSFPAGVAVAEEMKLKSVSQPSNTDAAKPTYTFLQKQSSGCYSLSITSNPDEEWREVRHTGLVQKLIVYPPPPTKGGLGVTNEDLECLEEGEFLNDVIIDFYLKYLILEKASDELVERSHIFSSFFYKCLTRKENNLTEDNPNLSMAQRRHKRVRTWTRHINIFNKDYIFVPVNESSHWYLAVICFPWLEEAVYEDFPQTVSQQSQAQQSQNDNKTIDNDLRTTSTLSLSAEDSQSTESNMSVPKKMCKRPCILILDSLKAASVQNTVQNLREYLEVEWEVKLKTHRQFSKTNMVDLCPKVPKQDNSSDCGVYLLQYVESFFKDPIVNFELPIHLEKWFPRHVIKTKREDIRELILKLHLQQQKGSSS

[18] = target: T4, Sentrin-specific protease 6 (Homo sapiens, UniProt Q9GZR1); test: SENP6 protease inhibitors, SAR follow-up, biochemical, luminescence, set 2 (AID 588598); type: functional
T4 sequence (Q9GZR1 whole entry): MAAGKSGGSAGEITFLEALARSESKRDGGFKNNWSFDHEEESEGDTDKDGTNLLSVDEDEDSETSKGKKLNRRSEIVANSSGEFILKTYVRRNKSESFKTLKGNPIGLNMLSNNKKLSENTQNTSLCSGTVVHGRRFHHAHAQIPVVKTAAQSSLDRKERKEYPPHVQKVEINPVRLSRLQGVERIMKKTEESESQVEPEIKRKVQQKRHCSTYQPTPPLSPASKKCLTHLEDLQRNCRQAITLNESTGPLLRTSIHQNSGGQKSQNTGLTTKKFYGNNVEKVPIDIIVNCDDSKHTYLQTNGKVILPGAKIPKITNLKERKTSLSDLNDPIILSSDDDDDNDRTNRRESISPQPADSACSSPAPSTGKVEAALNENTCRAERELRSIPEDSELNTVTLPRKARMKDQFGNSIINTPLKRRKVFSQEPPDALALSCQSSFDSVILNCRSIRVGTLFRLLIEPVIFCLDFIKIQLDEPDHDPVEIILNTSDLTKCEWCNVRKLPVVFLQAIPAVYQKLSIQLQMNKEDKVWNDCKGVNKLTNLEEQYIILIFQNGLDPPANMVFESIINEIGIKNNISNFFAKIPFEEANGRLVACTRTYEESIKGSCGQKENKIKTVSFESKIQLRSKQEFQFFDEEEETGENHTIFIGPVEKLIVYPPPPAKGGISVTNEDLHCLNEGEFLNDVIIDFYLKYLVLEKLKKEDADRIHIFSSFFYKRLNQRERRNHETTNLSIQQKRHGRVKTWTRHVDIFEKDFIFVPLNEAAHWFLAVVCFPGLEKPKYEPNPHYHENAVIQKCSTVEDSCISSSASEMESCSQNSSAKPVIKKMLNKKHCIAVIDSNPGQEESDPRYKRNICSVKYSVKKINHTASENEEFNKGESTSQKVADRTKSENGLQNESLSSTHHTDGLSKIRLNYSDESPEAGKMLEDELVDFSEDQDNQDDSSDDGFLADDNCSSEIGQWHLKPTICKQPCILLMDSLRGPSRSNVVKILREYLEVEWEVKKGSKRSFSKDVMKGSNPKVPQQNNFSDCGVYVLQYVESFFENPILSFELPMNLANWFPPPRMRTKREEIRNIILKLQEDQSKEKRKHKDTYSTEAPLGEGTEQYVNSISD

[19] = target: Proto-oncogene tyrosine-protein kinase receptor Ret (Homo sapiens, UniProt P07949); type: functional;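 also: measured within a kinome-wide profiling panel, RET as the panel member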
[20] = target: Tyrosine-protein kinase receptor TYRO3 (Homo sapiens, UniProt Q06418); type: functional;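 also: TYRO3 value obtained as one member of a kinome-wide profiling panel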

SMILES: O=C(c1cccc(Cl)c1)N1CCN(c2ccccn2)CC1
- AC50 (Candida albicans [11]): < 0.195 µM (active)
- AC50 (Candida albicans [12]): 0.073 µM (active)

SMILES: COc1ccc(Br)c(C(=O)Nc2nc3ccc(C)cc3s2)c1
- IC50 (Caspase-3): 3.57 µM (active)
- IC50 [16]: 1.78 µM (active)
- IC50 [17]: 2.13 µM (active)
- IC50 [18]: 2.02 µM (active)

Second part, the molecule after the results:

- Ki [1]: > 100 µM (inactive)
- Ki [2]: 50.1 µM (active)
- Ki (Aurora kinase A): > 63.1 µM (inactive)
- Ki [3]: > 100 µM (inactive)
- Ki [4]: 15.8 µM (active)
- Ki [5]: > 100 µM (inactive)
- Ki [6]: > 63.1 µM (inactive)
- Ki [7]: > 50.1 µM (inactive)
- Ki [8]: 3.98 µM (active)
- Ki [9]: > 100 µM (inactive)
- Ki [10]: > 79.4 µM (inactive)
SMILES: NC(=O)c1cnn2c(-c3ccccc3)ccnc12

- Ki [13]: 79.4 µM (active)
- Ki [14]: 63.1 µM (active)
- Ki [15]: 63.1 µM (active)
- Ki [8]: 20 µM (active)
SMILES: Cc1[nH]c(=O)oc(=O)c1-c1ccccc1

- Ki [19]: 100 µM (active)
- Ki [20]: 31.6 µM (active)
- Ki [4]: 50.1 µM (active)
SMILES: O=C1NS(=O)(=O)c2cccc(Cl)c21
